Test results published in patent US6358883B1, “Pesticidal and parasiticidal use of 1-aryl-1-(substituted thio, sulfinyl and sulfonyl)-2-nitroethane compounds” (American Cyanamid Company, priority 1998, dated 2002).

Assays:
Assay type in all cases: in vivo
[1] = tested on: M. incognita (Root Knot Nematode) larvae; assay: Evaluation of test compounds against M. incognita larvae in microtiter plate wells (movement score); conditions: larvae scored for movement after 20-24 hours; further: key: A score of '9' indicates inactive worms with a straight, sticklike morphology; A score of '8' indicates inactive worms with a limp, curled or curved morphology; A score of '7' indicates dead/paralyzed worms after 72 hours
How it was run: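 Newly emerged M. incognita larvae in S Medium (buffered salt solution), 50-65 worms per well, exposed to test compounds in sealed microtiter wells. Movement scored after 20-24 h incubation; wells with obviously dead/paralyzed larvae scored positive. A score of "7" denotes dead/paralyzed worms after […].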

[2] = tested on: C. elegans (Bristol strain); assay: Evaluation of test compounds against C. elegans (motility, 96-well plate); parameters: key: 9=complete kill in 4 hours; 8=complete kill in 24 hours; 7=markedly reduced motility in approximately 95% of worms in 24 hours; 0=normal motility, same as controls; conditions: motility at 4 and 24 hours
How it was run: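 Bristol-strain C. elegans in Na buffer added to wells containing dried compound (applied in 80% acetone) and incubated at 20 °C. Motility of adults and larvae scored subjectively but semi-quantitatively under a dissecting microscope at 4 and 24 h after immersion, plates tapped before reading.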

[3] = tested on: Diabrotica virgifera virgifera Leconte, 2nd instar western corn rootworm (WCR); assay: Western corn rootworm (WCR) soil test; parameters: key: 0 = no effect; 1 = 10-25% kill; 2 = 26-35% kill; 3 = 36-45% kill; 4 = 46-55% kill; 5 = 56-65% kill; 6 = 66-75% kill; 7 = 76-85% kill; 8 = 86-99% kill; 9 = 100% kill
How it was run: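 Compound in 35% acetone/water applied to talc at 1.25 mg active ingredient per jar (about 50 kg/ha), solvent evaporated, then mixed with millet seed and moist soil. Ten 2nd-instar larvae per jar; mortality counted after 5 days, missing larvae scored dead.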

[4] = tested on: Tetranychus urticae (OP-resistant strain), 2-spotted spider mite (TSM); assay: 2-spotted spider mite (TSM) plant dip test; parameters: key: 0 = no effect; 1 = 10-25% kill; 2 = 26-35% kill; 3 = 36-45% kill; 4 = 46-55% kill; 5 = 56-65% kill; 6 = 66-75% kill; 7 = 76-85% kill; 8 = 86-99% kill; 9 = 100% kill; conditions: mortality after 2 days
How it was run: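 OP-resistant mites (~100 per leaf) were transferred onto Sieva lima bean primary leaves about 2 h before treatment. Infested plants were dipped for 3 s in compound from a 10,000 ppm stock in 35% acetone/water, diluted with water. Mortality was counted after 2 days.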

[5] = tested on: Diabrotica undecimpunctata howardi, eggs-southern corn rootworm (SCR-Eggs); assay: Southern corn rootworm eggs (SCR-Eggs) treated diet test; parameters: key: 0 = no effect; 1 = 10-25% kill; 2 = 26-35% kill; 3 = 36-45% kill; 4 = 46-55% kill; 5 = 56-65% kill; 6 = 66-75% kill; 7 = 76-85% kill; 8 = 86-99% kill; 9 = 100% kill; conditions: mortality after 7 days
How it was run: (§1)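 Compounds dissolved at 10,000 ppm in 35% acetone/water, diluted with water, applied to artificial diet in wells and dried. Southern corn rootworm or southern armyworm eggs placed on treated diet under vented covers; mortality counted after 7 days.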

[6] = tested on: Spodoptera eridania, eggs-southern armyworm (SAW-Eggs); assay: Southern armyworm eggs (SAW-Eggs) treated diet test; parameters: key: 0 = no effect; 1 = 10-25% kill; 2 = 26-35% kill; 3 = 36-45% kill; 4 = 46-55% kill; 5 = 56-65% kill; 6 = 66-75% kill; 7 = 76-85% kill; 8 = 86-99% kill; 9 = 100% kill; conditions: mortality after 7 days
How it was run: as §1

[7] = tested on: Spodoptera eridania, 2nd instar larvae, southern armyworm (SAW); assay: Southern armyworm (SAW) leaf dip test; parameters: key: 0 = no effect; 1 = 10-25% kill; 2 = 26-35% kill; 3 = 36-45% kill; 4 = 46-55% kill; 5 = 56-65% kill; 6 = 66-75% kill; 7 = 76-85% kill; 8 = 86-99% kill; 9 = 100% kill
How it was run: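 Compound is dissolved at 10,000 ppm in 35% acetone/water, then diluted with water. Lima bean leaves are dipped for 3 seconds, dried and placed with ten 2nd instar larvae on damp filter paper. Mortality, reduced feeding and molting interference are scored at 5 days.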

[8] = tested on: Aphis gossypii, cotton aphid (CA); assay: Cotton aphid (CA) cotyledon dip test; parameters: key: 0 = no effect; 1 = 10-25% kill; 2 = 26-35% kill; 3 = 36-45% kill; 4 = 46-55% kill; 5 = 56-65% kill; 6 = 66-75% kill; 7 = 76-85% kill; 8 = 86-99% kill; 9 = 100% kill; conditions: mortality after 5 days
How it was run: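 Cotyledon-stage cotton plants infested overnight via a heavily infested leaf, then dipped in test solution (compound in 35% acetone/water, diluted with water) and dried. Mortality counted after 5 days.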

SMILES | M. incognita (150 ppm) score [1] | Rating Against C. elegans (150 ppm) [2] | WCR (50 ppm) rating [3] | TSM (300 ppm) rating [4] | SCR Eggs (1000 ppm) rating [5] | SAW Eggs (300 ppm) rating [6] | SAW (300 ppm) rating [7] | CA (300 ppm) rating [8]
CCCOC(=O)CSC(C[N+](=O)[O-])c1c(Cl)cccc1Cl (stereo not shown) [Example 133] | 0 | 0 | 0 | 0 | 9 (9 = 100% kill) | 0 | 0 | 0
CCCCOC(=O)CSC(C[N+](=O)[O-])c1c(Cl)cccc1Cl (stereo not shown) [Example 134] | 0 | 0 | 0 | 0 | 0 | 0 | 0 | 0
O=C(CSC(C[N+](=O)[O-])c1c(Cl)cccc1Cl)OCc1ccccc1 (stereo not shown) [Example 135] | 0 | 0 | 0 | 0 | 9 (9 = 100% kill) | 0 | 0 | 0
CCCSC(C[N+](=O)[O-])c1c(Cl)cccc1Cl (stereo not shown) [Example 136] | 0 | 0 | 0 | 0 | 0 | 0 | 0 | 0
O=[N+]([O-])CC(SCc1ccccc1)c1c(Cl)cccc1Cl (stereo not shown) [Example 137] | 0 | 0 | 0 | 0 | 9 (9 = 100% kill) | 9 (9 = 100% kill) | 0 | 0
COC(=O)CSC(C[N+](=O)[O-])c1cccnc1 (stereo not shown) [Example 171] | 9 | 7 | 0 | 0 | 0 | 0 | 0 | 0
CCOC(=O)CSC(C[N+](=O)[O-])c1cccnc1 (stereo not shown) [Example 172] | 9 | 8 | 0 | 0 | 0 | 0 | 0 | 0
CCCCOC(=O)CSC(C[N+](=O)[O-])c1cccnc1 (stereo not shown) [Example 173] | 9 | 8 | 0 | 0 | 0 | 0 | 0 | 0
